Data: publication PMC10046071 (Biomedicines, 2023)
“And” between values parts separate entries of the source, which are not always exact repeats. Identical values can stand only once. Each block holds one molecule with its values, some of them ahead of it.

Columns and labels:
[1] = Stability of stock and working solutions and of extracted samples in the autosampler; type: physicochemical; conditions: for stock solution stability, value for accuracy: DMSO stock, 10 days at −80 °C, versus freshly made, CV 3.7%; for working solution stability, value for accuracy: methanol, 8 h at room temperature, with or without light, CV 6.5%
From the text: However, in the present study it has been conducted to study the stability of the stock and working solutions, freeze–thaw stability and autosampler stability. For all stability studies, the analyte stability should fall within 85−115% of the nominal concentration and was not allowed to deviate more than ±15% from the nominal concentration of all the QCs studied, as indicated in the Guidelines for Bioanalytical Methods Validation.
On the other hand, the stability of the working solutions in methanol on each test day was evaluated after 8 h at room temperature with light and in the dark.
The stability in the autosampler of the sample after the extraction process was evaluated at room temperature in the range between 2 and 8 h.

[2] = 493 subjects with CML; cited from earlier work
[3] = 4 CML patients
[4] = cited from earlier work
[5] = in vitro, human plasma; cited from earlier work
[6] = Therapeutic drug monitoring: steady-state plasma pharmacokinetics in patients with CML; conditions: for Tmax / Cmin / Cmax: steady state; for CL/F: apparent oral clearance
[7] = test system: cytochrome P450 (CYP) 3A4; conditions: cited from earlier work
[8] = no reference given; cited from earlier work
[9] = 17 patients, 300 mg twice-daily
[10] = co-administered with a high-fat meal
[11] = Patient 1, 200–300 mg twice-daily oral
[12] = Patient 2, 200–300 mg twice-daily oral
[13] = Patient 3, 200–300 mg twice-daily oral
[14] = Patient 4, 200–300 mg twice-daily oral

stock solution stability, value for accuracy [1]: less than 1.5%
degradation on the autosampler ([1]; extracted sample, up to 8 h, room temperature): < 8.3%
working solution stability, value for accuracy [1]: lower than 15.1%
Correlation of Cmin with Alkaline phosphatase (U/L) [3]: 0.7497
Correlation of Cmin with Haemaglobin (g/dL) [3]: −0.0319
Correlation of Cmin with Haematocrit (%) [3]: 0.0870
Correlation of Cmin with Leukocytes (×10^3/µL) [3]: −0.9194
Correlation of Cmin with Neutrophils (×10^3/µL) [3]: −0.0280
Correlation of Cmin with Platelet (×10^3/µL) [3]: −0.6949
Correlation of Cmin with Serum bilirrubin (mg/dL) [3]: −0.4013
Correlation of Cmin with Serum creatinine (g/dL) [3]: −0.1897
t1/2 ([6]; Mean (SD) of 4 patients): 78.1 (75.4) h
Tmax ([6]; Mean (SD) of 4 patients): 2.3 (1.3) h
Cmin ([6]; Mean (SD) of 4 patients, 200–300 mg twice-daily): 1193.5 ng/mL and 1193.5 (414.7) ng/mL
CL/F ([6]; Patient 1): 2.8 L/h
t1/2 ([6]; Patient 1, elimination half-life): 25.1 h
Tmax ([6]; Patient 1): 1 h
Cmax [6, 11]: 3491.4 ng/mL
Cmin [6, 11]: 1633.9 ng/mL
CL/F ([6]; Patient 2): 1.9 L/h
t1/2 ([6]; Patient 2, elimination half-life): 69.3 h
Tmax ([6]; Patient 2): 2 h
Cmax [6, 12]: 1137.2 ng/mL
Cmin [6, 12]: 768.9 ng/mL
CL/F ([6]; Patient 3): 0.6 L/h
t1/2 ([6]; Patient 3, elimination half-life): 187.4 h
Tmax ([6]; Patient 3): 2 h
Cmax [6, 13]: 1988.4 ng/mL
Cmin [6, 13]: 1450.3 ng/mL
CL/F ([6]; Patient 4): 5.7 L/h
t1/2 ([6]; Patient 4, elimination half-life): 30.7 h
Tmax ([6]; Patient 4): 4 h
Cmax [6, 14]: 1103.5 ng/mL
Cmin [6, 14]: 920.7 ng/mL
Compound: Cc1cn(-c2cc(NC(=O)c3ccc(C)c(Nc4nccc(-c5cccnc5)n4)c3)cc(C(F)(F)F)c2)cn1 [nilotinib, Nilotinib]
trough concentration (Cmin) associated with longer times to complete cytogenetic response and MMR and shorter time to progression [2]: < 469.4 ng/mL
Correlation of Cmin with ALT (U/L) [3]: −0.3552
Correlation of Cmin with AST (U/L) [3]: −0.0833
Cmin at a steady state ([4]; 300 mg twice-daily, some clinical trials, no reference given): ~1123 ng/mL
Cmax at steady state [4, 9]: 1360 ng/mL
Cmin at steady state [4, 9]: 1123 ng/mL
interindividual variability in exposure (coefficient of variation) [4]: 32–64%
increase in the AUC [4, 10]: 50–82%
increase in the Cmax [4, 10]: up to 112%
mean area under the curve (AUC) ([4]; oral 400 mg twice daily): 19000 ± 9100 ng·h/mL
mean maximum plasma concentration (Cmax) ([4]; oral 400 mg twice daily): 2320 ± 1070 ng/mL
plasma protein binding [5]: approximately 98%
metabolizing enzymes [7]: metabolized primarily by cytochrome P450 (CYP) 3A4 isoform and with minor contributions from CYP2C8
aqueous solubility versus pH [8]: decreases significantly with increased pH
pKa [8]: 12.38
solubility [8]: good solubility in DMSO, organic solvents (methanol and acetonitrile) and acidic aqueous solution

stock solution stability, value for accuracy [1]: less than 1.5%
working solution stability, value for accuracy [1]: lower than 15.1%
Compound: Cc1cc(/C=C/C#N)cc(C)c1Nc1ccnc(Nc2ccc(C#N)cc2)n1 [rilpivirine]
